Data as given in patent publication US12528815B2, “5-amino-8-(4-pyridyl)-[1,2,4]triazolo[4,3-c]pyrimidin-3-one compounds for use against cancer” (Nxera Pharma UK Limited, priority 2020, dated 2026).

Tests used:
[1] = target: T1, human adenosine A1 receptor (Homo sapiens, UniProt P30542); test: Inhibition binding assay, human adenosine A1 receptor membranes, [3H]DPCPX; conditions: 1 nM [3H]DPCPX, 25° C., 1 h; IC50 converted to Ki with Cheng-Prusoff; read-out: A1 pKi (converted)
T1 construct: expressed in transfected cells; host or cells: HEK293 cells infected with BacMam (the same paragraph also labels the preparation CHO-hA1)
T1 sequence (P30542 1-326): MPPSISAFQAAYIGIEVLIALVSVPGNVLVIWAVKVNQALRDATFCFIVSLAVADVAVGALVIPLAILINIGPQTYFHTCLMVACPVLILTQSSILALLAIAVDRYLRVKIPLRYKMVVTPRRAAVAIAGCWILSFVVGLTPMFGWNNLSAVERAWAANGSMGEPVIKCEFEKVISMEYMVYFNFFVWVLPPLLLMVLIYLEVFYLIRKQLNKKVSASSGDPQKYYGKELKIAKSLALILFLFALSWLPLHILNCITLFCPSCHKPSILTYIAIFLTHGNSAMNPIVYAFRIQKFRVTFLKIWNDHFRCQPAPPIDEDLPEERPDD
Summary of the method: (§1)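 Membranes from BacMam-infected HEK293 cells (0.2 μg A2A, 1.4 μg A1) incubated 1 h at 25° C with test compound and 1 nM [3H]ZM241385 (A2A; 50 mM Tris-HCl pH 7.4) or [3H]DPCPX (A1; plus 100 mM NaCl, 10 mM MgCl2). Nonspecific: 1 μM CGS15943 or DPCPX. Filtration, scintillation; IC50 converted to Ki via Cheng-Prusoff.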

[2] = target: T2, human adenosine A2A receptor (Homo sapiens, UniProt P29274); test: Inhibition binding assay, human adenosine A2A receptor membranes, [3H]ZM241385; conditions: 1 nM [3H]ZM241385, HEK293-hA2A membranes, 25° C., 1 h; IC50 converted to Ki with Cheng-Prusoff; read-out: A2A pKi (converted)
T2 construct: expressed in transfected cells; host or cells: HEK293 cells infected with BacMam
T2 sequence (P29274 whole entry): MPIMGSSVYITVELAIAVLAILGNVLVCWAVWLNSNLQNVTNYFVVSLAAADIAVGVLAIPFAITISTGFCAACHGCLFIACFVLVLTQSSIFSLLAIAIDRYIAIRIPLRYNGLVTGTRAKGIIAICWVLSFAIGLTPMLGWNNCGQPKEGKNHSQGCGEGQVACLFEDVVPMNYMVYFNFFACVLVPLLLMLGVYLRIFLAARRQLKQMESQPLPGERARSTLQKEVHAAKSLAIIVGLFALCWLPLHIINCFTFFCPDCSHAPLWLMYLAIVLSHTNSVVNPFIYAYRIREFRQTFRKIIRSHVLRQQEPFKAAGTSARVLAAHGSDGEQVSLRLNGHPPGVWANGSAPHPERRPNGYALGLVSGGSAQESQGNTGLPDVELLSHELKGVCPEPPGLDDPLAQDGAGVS
Summary of the method: as §1

Cc1cc(-c2c(-c3ccccc3)nc(N)n3c(=O)n(Cc4cccc(F)c4Cl)nc23)cc(C)n1 [Example 1-21, 5-amino-2-[(2-chloro-3-fluoro-phenyl)methyl]-8-(2,6-dimethyl-4-pyridyl)-7-phenyl-[1,2,4]triazolo[4,3-c]pyrimidin-3-one]
Ki [1]: 10 nM | Ki [2]: 0.501 nM

Cc1cc(-c2c(-c3ccccc3)nc(N)n3c(=O)n(C4CCCNC4)nc23)cc(C)n1 (stereo not shown) [Example 2-55, 5-amino-8-(2,6-dimethyl-4-pyridyl)-7-phenyl-2-(3-piperidyl)-[1,2,4]triazolo[4,3-c]pyrimidin-3-one]
Ki [1]: > 3160 nM | Ki [2]: 251 nM

Cc1cc(-c2c(-c3ccccc3)nc(N)n3c(=O)n(CC4CCCCO4)nc23)cc(CO)n1 (single isomer, unassigned) [Example 2-91-iso-1, 5-amino-8-[2-(hydroxymethyl)-6-methyl-4-pyridyl]-7-phenyl-2-(tetrahydropyran-2-ylmethyl)-[1,2,4]triazolo[4,3-c]pyrimidin-3-one]
Ki [1]: 631 nM | Ki [2]: 1.26 nM

Cc1cc(-c2c(-c3ccccc3)nc(N)n3c(=O)n(CC4CCCOC4)nc23)cc(CO)n1 (single isomer, unassigned) [Example 2-92-iso-2, 5-amino-8-[2-(hydroxymethyl)-6-methyl-4-pyridyl]-7-phenyl-2-(tetrahydropyran-3-ylmethyl)-[1,2,4]triazolo[4,3-c]pyrimidin-3-one]
Ki [1]: 316 nM | Ki [2]: 1.26 nM

Cc1cc(-c2c(-c3ccccc3)nc(N)n3c(=O)n(Cc4ccc(F)cc4C)nc23)cc(C)n1 [Example 1-18, 5-amino-8-(2,6-dimethyl-4-pyridyl)-2-[(4-fluoro-2-methyl-phenyl)methyl]-7-phenyl-[1,2,4]triazolo[4,3-c]pyrimidin-3-one]
Ki [1]: 10 nM | Ki [2]: 0.0794 nM

Cc1cc(-c2c(-c3ccccc3)nc(N)n3c(=O)n(CC(=O)N(C)C4CC4)nc23)cc(C)n1 [Example 2-28, 2-[5-amino-8-(2,6-dimethyl-4-pyridyl)-3-oxo-7-phenyl-[1,2,4]triazolo[4,3-c]pyrimidin-2-yl]-N-cyclopropyl-N-methyl-acetamide]
Ki [1]: 200 nM | Ki [2]: 1.58 nM

Nc1nc(-c2ccccc2)c(-c2cc(Cl)nc(CO)c2)c2nn(Cc3ccc(F)cn3)c(=O)n12 [Example 1-69, 5-amino-8-[2-chloro-6-(hydroxymethyl)-4-pyridyl]-2-[(5-fluoro-2-pyridyl)methyl]-7-phenyl-[1,2,4]triazolo[4,3-c]pyrimidin-3-one]
Ki [1]: 251 nM | Ki [2]: 0.794 nM

Cc1cc(-c2c(-c3ccccc3)nc(N)n3c(=O)n(Cc4ccc(O)cc4)nc23)cc(C)n1 [Example 1-4, 5-amino-8-(2,6-dimethyl-4-pyridyl)-2-[(4-hydroxyphenyl)methyl]-7-phenyl-[1,2,4]triazolo[4,3-c]pyrimidin-3-one]
Ki [1]: 501 nM | Ki [2]: 1.26 nM

C/C=C(\C)c1nc(N)n2c(=O)n(CCC(F)(F)F)nc2c1-c1cc(C)nc(C)c1 [Example 3-10, 5-amino-8-(2,6-dimethyl-4-pyridyl)-7-[(E)-1-methylprop-1-enyl]-2-(3,3,3-trifluoropropyl)-[1,2,4]triazolo[4,3-c]pyrimidin-3-one]
Ki [1]: > 3160 nM | Ki [2]: 10 nM

C/C=C(/C)c1nc(N)n2c(=O)n(CCC(F)(F)F)nc2c1-c1cc(C)nc(C)c1 [Example 3-9, 5-amino-8-(2,6-dimethyl-4-pyridyl)-7-[(Z)-1-methylprop-1-enyl]-2-(3,3,3-trifluoropropyl)-[1,2,4]triazolo[4,3-c]pyrimidin-3-one]
Ki [1]: > 3160 nM | Ki [2]: 398 nM

Cc1cc(-c2c(-c3ccccc3)nc(N)n3c(=O)n(CC(C)C)nc23)cc(C)n1 [Example 2-21, 5-amino-8-(2,6-dimethyl-4-pyridyl)-2-isobutyl-7-phenyl-[1,2,4]triazolo[4,3-c]pyrimidin-3-one]
Ki [1]: 1000 nM | Ki [2]: 2.51 nM

Cc1cc(-c2c(-c3ccccc3)nc(N)n3c(=O)n(CCN4CCC4)nc23)cc(C)n1 [Example 2-94, 5-amino-2-[2-(azetidin-1-yl)ethyl]-8-(2,6-dimethyl-4-pyridyl)-7-phenyl-[1,2,4]triazolo[4,3-c]pyrimidin-3-one]
Ki [1]: > 2510 nM | Ki [2]: 25.1 nM

Cc1cc(-c2c(N3CCOCC3)nc(N)n3c(=O)n(CCC(F)(F)F)nc23)cc(C)n1 [Example 3-1, 5-amino-8-(2,6-dimethyl-4-pyridyl)-7-morpholino-2-(3,3,3-trifluoropropyl)-[1,2,4]triazolo[4,3-c]pyrimidin-3-one]
Ki [1]: > 3160 nM | Ki [2]: 316 nM

Cc1cc(-c2c(-c3ccccc3)nc(N)n3c(=O)n(C(CN)c4c(F)cccc4F)nc23)cc(C)n1 (stereo not shown) [Example 1-34, 5-amino-2-(2-amino-1-(2,6-difluorophenyl)ethyl)-8-(2,6-dimethylpyridin-4-yl)-7-phenyl-[1,2,4]triazolo[4,3-c]pyrimidin-3(2H)-one]
Ki [1]: 100 nM | Ki [2]: 1 nM

CNC(=O)c1cc(NCCn2nc3c(-c4cc(C)nc(C)c4)c(-c4ccccc4)nc(N)n3c2=O)ccc1Cl [Example 1-91, 5-[2-[5-amino-8-(2,6-dimethyl-4-pyridyl)-3-oxo-7-phenyl-[1,2,4]triazolo[4,3-c]pyrimidin-2-yl]ethylamino]-2-chloro-N-methyl-benzamide]
Ki [1]: 1000 nM | Ki [2]: 39.8 nM

CCC(c1ccc(F)cn1)n1nc2c(-c3cc(C)nc(CO)c3)c(-c3ccccc3)nc(N)n2c1=O (single isomer, unassigned) [1-46 iso-2, 5-amino-2-[1-(5-fluoro-2-pyridyl)propyl]-8-[2-(hydroxymethyl)-6-methyl-4-pyridyl]-7-phenyl-[1,2,4]triazolo[4,3-c]pyrimidin-3-one]
Ki [1]: > 2510 nM | Ki [2]: 100 nM

Cc1cc(-c2c(-c3ccccc3)nc(N)n3c(=O)n(CCN4CCOCC4)nc23)cc(C)n1 [Example 2-99, 5-amino-8-(2,6-dimethyl-4-pyridyl)-2-(2-morpholinoethyl)-7-phenyl-[1,2,4]triazolo[4,3-c]pyrimidin-3-one]
Ki [1]: 794 nM | Ki [2]: 31.6 nM

Cc1cc(-c2c(-c3ccccc3)nc(N)n3c(=O)n(CC(CO)CO)nc23)cc(C)n1 [Example 2-24, 5-amino-8-(2,6-dimethyl-4-pyridyl)-2-[3-hydroxy-2-(hydroxymethyl)propyl]-7-phenyl-[1,2,4]triazolo[4,3-c]pyrimidin-3-one]
Ki [1]: 794 nM | Ki [2]: 10 nM

COc1nc(N)n2c(=O)n(CCC(F)(F)F)nc2c1-c1cc(C)nc(C)c1 [Example 3-8, 5-amino-8-(2,6-dimethyl-4-pyridyl)-7-methoxy-2-(3,3,3-trifluoropropyl)-[1,2,4]triazolo[4,3-c]pyrimidin-3-one]
Ki [1]: > 3160 nM | Ki [2]: 1260 nM

Cc1cc(-c2c(-c3ccccc3)nc(N)n3c(=O)n(CC4CCCOC4)nc23)cc(C)n1 (stereo not shown) [Example 2-81, 5-amino-8-(2,6-dimethyl-4-pyridyl)-7-phenyl-2-(tetrahydropyran-3-ylmethyl)-[1,2,4]triazolo[4,3-c]pyrimidin-3-one]
Ki [1]: 316 nM | Ki [2]: 0.501 nM

Cc1cc(-c2c(-c3ccccc3)nc(N)n3c(=O)n(Cc4ccccc4CN(C)C)nc23)cc(C)n1 [Example 1-24, 5-amino-2-[[2-[(dimethylamino)methyl]phenyl]methyl]-8-(2,6-dimethyl-4-pyridyl)-7-phenyl-[1,2,4]triazolo[4,3-c]pyrimidin-3-one]
Ki [1]: 15.8 nM | Ki [2]: 0.126 nM

Cc1cc(-c2c(-c3ccccc3)nc(N)n3c(=O)n(CCN4CCC(F)(F)CC4)nc23)cc(C)n1 [Example 2-101, 5-amino-2-[2-(4,4-difluoro-1-piperidyl)ethyl]-8-(2,6-dimethyl-4-pyridyl)-7-phenyl-[1,2,4]triazolo[4,3-c]pyrimidin-3-one]
Ki [1]: 631 nM | Ki [2]: 15.8 nM

Cc1cc(-c2c(-c3ccccc3)nc(N)n3c(=O)n(CC(N)=O)nc23)cc(C)n1 [Example 2-22, 2-[5-amino-8-(2,6-dimethyl-4-pyridyl)-3-oxo-7-phenyl-[1,2,4]triazolo[4,3-c]pyrimidin-2-yl]acetamide]
Ki [1]: 1000 nM | Ki [2]: 200 nM

Cc1cc(-c2c(-c3ccccc3)nc(N)n3c(=O)n(CCNC(=O)OC(C)(C)C)nc23)cc(C)n1 [Example 2-14, tert-butyl N-[2-[5-amino-8-(2,6-dimethyl-4-pyridyl)-3-oxo-7-phenyl-[1,2,4]triazolo[4,3-c]pyrimidin-2-yl]ethyl]carbamate]
Ki [1]: 794 nM | Ki [2]: 100 nM

Cc1cc(-c2c(-c3ccccc3)nc(N)n3c(=O)n(CCNC4CCCC(C(=O)NC5CC5)C4)nc23)cc(C)n1 (stereo not shown) [Example 2-108, 3-[2-[5-amino-8-(2,6-dimethyl-4-pyridyl)-3-oxo-7-phenyl-[1,2,4]triazolo[4,3-c]pyrimidin-2-yl]ethylamino]-N-cyclopropyl-cyclohexanecarboxamide]
Ki [1]: > 3980 nM | Ki [2]: 200 nM

Cc1cc(-c2c(-c3ccc(F)cc3F)nc(N)n3c(=O)n(CCC(F)(F)F)nc23)cc(C)n1 [Example 2-34, 5-amino-7-(2,4-difluorophenyl)-8-(2,6-dimethyl-4-pyridyl)-2-(3,3,3-trifluoropropyl)-[1,2,4]triazolo[4,3-c]pyrimidin-3-one]
Ki [1]: > 3980 nM | Ki [2]: 15.8 nM
